# Target: T1, Solute carrier organic anion transporter family member 1A1 (Rattus norvegicus, UniProt P46720)
# T1 sequence (P46720 whole entry): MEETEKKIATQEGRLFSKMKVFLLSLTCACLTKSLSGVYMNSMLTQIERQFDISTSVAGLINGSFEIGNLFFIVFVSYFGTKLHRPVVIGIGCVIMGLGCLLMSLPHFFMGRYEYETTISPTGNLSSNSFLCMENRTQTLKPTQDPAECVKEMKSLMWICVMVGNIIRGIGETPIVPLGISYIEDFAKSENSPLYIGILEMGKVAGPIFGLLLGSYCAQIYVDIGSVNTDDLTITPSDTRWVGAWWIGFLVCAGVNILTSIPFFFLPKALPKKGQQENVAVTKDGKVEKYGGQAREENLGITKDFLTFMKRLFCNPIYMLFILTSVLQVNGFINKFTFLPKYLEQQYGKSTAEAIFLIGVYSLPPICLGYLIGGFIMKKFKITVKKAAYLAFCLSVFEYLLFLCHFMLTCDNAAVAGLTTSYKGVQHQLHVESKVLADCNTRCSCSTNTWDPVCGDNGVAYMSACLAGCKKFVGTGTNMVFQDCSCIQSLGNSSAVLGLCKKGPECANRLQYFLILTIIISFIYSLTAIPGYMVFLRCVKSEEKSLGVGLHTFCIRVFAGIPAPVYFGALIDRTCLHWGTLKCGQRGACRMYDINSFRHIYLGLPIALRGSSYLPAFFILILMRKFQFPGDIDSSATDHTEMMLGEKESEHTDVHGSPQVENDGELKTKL
# Experiment: TP_TRANSPORTER: uptake in Oatp1-expressing CHO-03 cell
# Format: functional, cell-based
# Settings: hamster
smiles,measurement,value
C[C@H](CCC(=O)NCC(=O)O)[C@H]1CC[C@H]2[C@@H]3[C@H](O)C[C@@H]4C[C@H](O)CC[C@]4(C)[C@H]3C[C@H](O)[C@]12C [GLYCOCHOLIC ACID],Activity,substrate [+]

# — ChEMBL document CHEMBL2073911, “Sensitivity of bile acid transport by organic anion-transporting polypeptides to intracellular pH” (Biochim Biophys Acta, 2003)
